Structures are written as SMILES. Values joined by “and” are separate entries in the source; they are usually repeats but may differ in a detail not shown here. Equal values may be shown once.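 In this assay, cells in 96-well plates receive the compound at five concentrations for 48 hours. Endpoints are linearly interpolated between the surrounding concentrations. Abbreviation: GI50, concentration required for 50% inhibition of growth. TGI denotes the concentration required for complete inhibition of growth.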

Our source for the GI50 and TGI values is PubChem BioAssay (NCI).

The test system of the first experiment is SK-MEL-5 melanoma. Put plainly: inhibition of tumour cell growth, NCI panel, 48 h.
On to `CCN=C1C=CC(=C(c2ccc(N(C)C)cc2)c2ccc(N(C)C)cc2)c2ccccc21`, for which the GI50 is 0.0609 µM and the TGI came out at 0.213 µM.

For `Nc1ncnc2c1ccn2C1OC2COP(=O)(O)OC2C1O` (stereo not given), the TGI came to 1.59 µM.

In the case of `Cc1cc(N2CCCCC2)nc(N(CCNc2ccnc3cc(Cl)ccc23)Cc2ccco2)n1`, the GI50 is 1.68 µM and the TGI is 3.07 µM.

Compound `O=C(O)[C@@H]1C2CC([C@@H]1C(=O)O)[C@H](N1C(=O)CCC1=O)[C@@H]2Br` (stereo not given in full) had a TGI of over 100 µM.

With `CCCN1C(=O)/C(=c2\sc3n(c2=O)C2C(NN=3)N(CC)C(=O)N2CC)c2ccccc21` (stereo not given), the GI50 was 0.369 µM and the TGI was determined as 3.15 µM.

As to `CCn1c(-c2nonc2N)nc2cncc(C(=O)N3CCNCC3)c21`, the GI50 was over 25 µM and the TGI is over 25 µM.

On to `c1ccc2[nH]c(-c3ccc(N4CCN(c5ccc(-c6nc7ccccc7[nH]6)cc5)CC4)cc3)nc2c1`, for which the GI50 was over 100 µM and the TGI was over 100 µM.

For the compound `CCN(CC)CCOc1ccc(C(=C(C)c2ccc(Cl)cc2)c2ccc(OCCN(CC)CC)cc2)cc1`, the GI50 was 0.592 µM and the TGI amounted to 1.06 µM.

As for `C[C@]12CC[C@H]3[C@@H](CCC4=CC(=O)CC[C@@H]43)[C@@H]1CC[C@@H]2OC(=O)N(CCCl)N=O`, the GI50 is 1.99 µM and the TGI was 16.1 µM.

As for `CC12CCC(=O)C=C1CCC1C2CCC2(C)C(C(=O)Cn3cnc4c(=S)nc[nH]c43)CCC12` (stereo not given), the TGI was over 100 µM.

With `CN(C)CCNC(=O)c1cccn2c(=O)c3cc4ccccc4cc3nc12`, the GI50 was 0.131 µM and the TGI came out at 0.476 µM.

`Cn1c(=O)c2[nH]c(/N=N/N3CCN(CCO)CC3)nc2n(C)c1=O`: the TGI was over 100 µM.

In the case of `COc1cc2c(cc1OC)-c1ccc3cc4c(cc3c1N(CCN1CCCC1)C2)OCO4`, the GI50 is 1.48 µM and the TGI was 3.09 µM.

As for `c1ccc2nc(Cn3c[n+](Cc4ccc5ccccc5n4)c4ccccc43)ccc2c1`, the GI50 was 1.45 µM and the TGI stood at 2.8 µM.

With `O=C(O)CS(=O)(=O)C(c1ccccc1)c1ccccc1`, the TGI was over 100 µM.

`C=C(C)[C@@H]1CC[C@]2(C(=O)NCCCN)CC[C@]3(C)[C@H](CC[C@@H]4[C@@]5(C)CC[C@H](O)C(C)(C)[C@@H]5CC[C@]43C)[C@@H]12`: the GI50 is 19.4 µM and the TGI turned out to be 48.6 µM.

As for `O=C(Nc1cccc(Cl)c1)Nc1ncc(CCNc2ncnc3ccsc23)s1`, the GI50 is 1.39 µM and 1.59 µM; the TGI is 2.83 µM and 4.16 µM.

As to `CCOC(=O)Cc1c[nH]c(=S)[nH]c1=O`, the GI50 is over 100 µM and the TGI is over 100 µM.

Turning to `CCc1c(C)[nH]c(/C=C2\N=C(c3ccc[nH]3)C=C2OC)c1C`, the GI50 was 0.159 µM and the TGI is 0.545 µM.

Take `CCc1ccc(NC(=O)Nc2c[nH]c3ccccc23)cc1`: the GI50 is 32.7 µM and the TGI is over 54.1 µM.

Another experiment deals with U251 CNS. Put plainly: inhibition of tumour cell growth, NCI panel, 48 h.
As to `CCN=C1C=CC(=C(c2ccc(N(C)C)cc2)c2ccc(N(C)C)cc2)c2ccccc21`, the GI50 is 0.0297 µM and the TGI is 0.198 µM.

As to `Nc1ncnc2c1ccn2C1OC2COP(=O)(O)OC2C1O` (stereo not given), the TGI is over 100 µM.

On to `Cc1cc(N2CCCCC2)nc(N(CCNc2ccnc3cc(Cl)ccc23)Cc2ccco2)n1`, for which the GI50 is 1.73 µM and the TGI was determined as 3.19 µM.

Turning to `O=C(O)[C@@H]1C2CC([C@@H]1C(=O)O)[C@H](N1C(=O)CCC1=O)[C@@H]2Br` (stereo not given in full), the TGI was over 100 µM.

`CCCN1C(=O)/C(=c2\sc3n(c2=O)C2C(NN=3)N(CC)C(=O)N2CC)c2ccccc21` (stereo not given): the GI50 was 0.485 µM and the TGI amounted to 12.3 µM.

With `CCn1c(-c2nonc2N)nc2cncc(C(=O)N3CCNCC3)c21`, the GI50 was over 25 µM and the TGI is over 25 µM.

Consider `c1ccc2[nH]c(-c3ccc(N4CCN(c5ccc(-c6nc7ccccc7[nH]6)cc5)CC4)cc3)nc2c1`, for which the GI50 was 41.3 µM and the TGI is over 100 µM.

As to `CCN(CC)CCOc1ccc(C(=C(C)c2ccc(Cl)cc2)c2ccc(OCCN(CC)CC)cc2)cc1`, the GI50 is 0.582 µM and the TGI is 1.15 µM.

On to `C[C@]12CC[C@H]3[C@@H](CCC4=CC(=O)CC[C@@H]43)[C@@H]1CC[C@@H]2OC(=O)N(CCCl)N=O`, for which the GI50 was 0.346 µM and the TGI came out at 17.4 µM.

`CC12CCC(=O)C=C1CCC1C2CCC2(C)C(C(=O)Cn3cnc4c(=S)nc[nH]c43)CCC12` (stereo not given) yielded a TGI of over 100 µM.

Turning to `CN(C)CCNC(=O)c1cccn2c(=O)c3cc4ccccc4cc3nc12`, the GI50 was 0.114 µM and the TGI stood at 18 µM.

Compound `Cn1c(=O)c2[nH]c(/N=N/N3CCN(CCO)CC3)nc2n(C)c1=O` displayed a TGI of over 100 µM.

On to `COc1cc2c(cc1OC)-c1ccc3cc4c(cc3c1N(CCN1CCCC1)C2)OCO4`, for which the GI50 is 0.563 µM and the TGI amounted to 1.9 µM.

For `c1ccc2nc(Cn3c[n+](Cc4ccc5ccccc5n4)c4ccccc43)ccc2c1`, the GI50 is 3.08 µM and the TGI came out at 12.8 µM.

On to `O=C(O)CS(=O)(=O)C(c1ccccc1)c1ccccc1`, for which the TGI was over 100 µM.

Regarding `C=C(C)[C@@H]1CC[C@]2(C(=O)NCCCN)CC[C@]3(C)[C@H](CC[C@@H]4[C@@]5(C)CC[C@H](O)C(C)(C)[C@@H]5CC[C@]43C)[C@@H]12`, the GI50 was 17.7 µM and the TGI amounted to 49.4 µM.

Take `O=C(Nc1cccc(Cl)c1)Nc1ncc(CCNc2ncnc3ccsc23)s1`: the GI50 was 4.68 µM and 2.16 µM; the TGI is over 45.7 µM.

Take `CCOC(=O)Cc1c[nH]c(=S)[nH]c1=O`: the GI50 was over 100 µM and the TGI is over 100 µM.

With `CCc1c(C)[nH]c(/C=C2\N=C(c3ccc[nH]3)C=C2OC)c1C`, the GI50 was 0.275 µM and the TGI was 7.33 µM.

For `CCc1ccc(NC(=O)Nc2c[nH]c3ccccc23)cc1`, the GI50 is 31.5 µM and the TGI is over 51.7 µM.
